Laboratory results reported in US8343892B2 (priority 2003, dated 2013).

Test system: Phytophthora infestans
Type: in vivo
Conditions: tomato (Marmande), 48 h preventive, assessed 5 days after contamination; lower line = chlorothalonil dose (in mixture or alone)

Question: What does the source list for N#Cc1c(Cl)c(Cl)c(Cl)c(C#N)c1Cl [Chlorothalonil, tetrachloroisophthalonitrile]?
Answer: ED70, Practical doses for 70% efficacy: dose of chlorothalonil: 16.1 µg/mL; ED90, Practical doses for 90% efficacy: dose of chlorothalonil: 36.7 µg/mL
